Active and inactive are the calls of the source.
How the values were obtained:
[1] = target: T1, Acyl-homoserine lactone acylase PvdQ (Pseudomonas aeruginosa (strain LESB58), UniProt Q9I194); assay: PvdQ acylase enzyme activity blockers – biochemical, fluorescence, plate reader and imaging, cherry-picks, dose response (AID 493231)
T1 sequence (Q9I194 whole entry): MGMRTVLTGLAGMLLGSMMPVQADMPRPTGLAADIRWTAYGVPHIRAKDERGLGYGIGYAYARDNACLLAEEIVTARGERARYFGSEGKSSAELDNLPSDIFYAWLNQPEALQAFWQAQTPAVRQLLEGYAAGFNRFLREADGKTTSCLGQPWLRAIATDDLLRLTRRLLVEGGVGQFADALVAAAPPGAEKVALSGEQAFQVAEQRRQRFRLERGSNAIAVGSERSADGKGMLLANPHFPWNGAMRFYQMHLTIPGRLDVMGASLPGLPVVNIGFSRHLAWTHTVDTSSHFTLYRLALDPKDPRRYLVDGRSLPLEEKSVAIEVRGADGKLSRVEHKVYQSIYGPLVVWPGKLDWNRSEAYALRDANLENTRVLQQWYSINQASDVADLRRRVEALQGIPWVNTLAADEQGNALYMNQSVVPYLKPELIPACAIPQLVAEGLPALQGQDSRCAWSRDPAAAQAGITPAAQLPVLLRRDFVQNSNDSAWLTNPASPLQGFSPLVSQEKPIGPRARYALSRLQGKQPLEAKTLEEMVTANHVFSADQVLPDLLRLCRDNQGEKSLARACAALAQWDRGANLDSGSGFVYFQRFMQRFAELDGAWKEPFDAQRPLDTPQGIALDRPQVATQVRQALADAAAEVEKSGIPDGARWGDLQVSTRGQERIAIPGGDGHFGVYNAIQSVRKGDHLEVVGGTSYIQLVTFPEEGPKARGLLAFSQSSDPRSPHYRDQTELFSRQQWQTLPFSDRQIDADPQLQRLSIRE

[2] = target: T2, G-protein coupled receptor 35 (Homo sapiens, UniProt Q9HC97); assay: SAR analysis of Agonists of the GPR35 Receptor using an Image-Based Assay - Set 4. [Related pubchem assays (depositor defined):AID2013, AID2026]; format: functional
T2 sequence (Q9HC97 whole entry): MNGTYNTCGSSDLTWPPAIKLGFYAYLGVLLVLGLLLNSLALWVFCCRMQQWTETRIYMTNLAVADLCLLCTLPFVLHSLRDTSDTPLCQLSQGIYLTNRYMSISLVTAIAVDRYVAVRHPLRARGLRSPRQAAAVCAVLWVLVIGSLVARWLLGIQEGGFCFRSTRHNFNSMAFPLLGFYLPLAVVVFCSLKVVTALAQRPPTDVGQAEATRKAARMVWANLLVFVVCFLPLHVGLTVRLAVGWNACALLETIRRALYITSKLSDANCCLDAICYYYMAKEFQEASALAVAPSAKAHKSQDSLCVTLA

[3] = target: T3, Cannabinoid receptor 2 (Homo sapiens, UniProt P34972); assay: SAR analysis of agonists of the Cannabinoid Receptor 2 using an Image-Based Assay - Set 3. [Related pubchem assays (depositor defined):AID2013, AID2026]; format: functional
T3 sequence (P34972 whole entry): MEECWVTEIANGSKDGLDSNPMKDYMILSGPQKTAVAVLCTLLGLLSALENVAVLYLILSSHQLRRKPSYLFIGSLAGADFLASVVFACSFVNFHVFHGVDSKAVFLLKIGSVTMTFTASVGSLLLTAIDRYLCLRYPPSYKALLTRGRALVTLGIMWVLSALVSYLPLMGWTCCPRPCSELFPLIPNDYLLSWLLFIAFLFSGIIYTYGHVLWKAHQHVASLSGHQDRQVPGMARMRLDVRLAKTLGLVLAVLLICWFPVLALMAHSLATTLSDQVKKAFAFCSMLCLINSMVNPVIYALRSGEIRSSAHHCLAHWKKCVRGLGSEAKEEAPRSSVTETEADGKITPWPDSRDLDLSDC

[4] = target: T4, Cannabinoid receptor 1 (Homo sapiens, UniProt P21554); assay: SAR analysis of agonists of the Cannabinoid Receptor 1 using an Image-Based Assay - Set 4. [Related pubchem assays (depositor defined):AID2013, AID2026]; format: functional
T4 sequence (P21554 whole entry): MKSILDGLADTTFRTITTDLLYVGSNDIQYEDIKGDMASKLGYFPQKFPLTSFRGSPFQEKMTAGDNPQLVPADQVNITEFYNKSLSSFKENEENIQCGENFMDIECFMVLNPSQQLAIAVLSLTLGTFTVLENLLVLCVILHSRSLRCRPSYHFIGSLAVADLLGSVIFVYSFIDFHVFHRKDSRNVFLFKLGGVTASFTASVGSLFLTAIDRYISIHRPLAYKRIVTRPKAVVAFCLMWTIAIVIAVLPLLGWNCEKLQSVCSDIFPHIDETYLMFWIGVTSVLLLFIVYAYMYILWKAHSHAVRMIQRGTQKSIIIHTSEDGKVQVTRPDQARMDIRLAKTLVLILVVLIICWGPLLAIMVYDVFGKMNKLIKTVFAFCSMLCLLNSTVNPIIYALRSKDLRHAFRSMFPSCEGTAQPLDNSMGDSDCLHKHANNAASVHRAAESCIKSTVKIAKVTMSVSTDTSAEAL

[5] = target: T4, Cannabinoid receptor 1; assay: SAR analysis of antagonists of the Cannabinoid Receptor 1 using an Image-Based Assay - Set 4. [Related pubchem assays (depositor defined):AID2013, AID2026]; format: functional
[6] = target: G-protein coupled receptor 55 (Homo sapiens, UniProt Q9Y2T6); assay: SAR Analysis of Selective Antagonists of GPR55 using an Image-Based Assay - Set 4. [Related pubchem assays (depositor defined):AID2013, AID2026]; format: functional;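 further: antagonism of response to 5 µM lysophosphatidylinositol agonist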
G-protein coupled receptor 55, sequence (Q9Y2T6 whole entry): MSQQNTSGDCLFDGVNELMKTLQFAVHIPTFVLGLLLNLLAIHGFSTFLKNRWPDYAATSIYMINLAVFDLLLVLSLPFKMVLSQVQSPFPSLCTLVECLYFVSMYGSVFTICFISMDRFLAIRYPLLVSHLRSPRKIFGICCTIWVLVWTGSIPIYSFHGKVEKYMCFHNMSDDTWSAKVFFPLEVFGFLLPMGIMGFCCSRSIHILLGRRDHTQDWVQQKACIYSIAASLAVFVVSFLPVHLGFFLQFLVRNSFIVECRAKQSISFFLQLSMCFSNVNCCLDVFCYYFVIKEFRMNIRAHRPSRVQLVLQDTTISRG

[7] = target: T2, G-protein coupled receptor 35; assay: SAR analysis of Antagonists of the GPR35 Receptor using an Image-Based Assay - Set 6. [Related pubchem assays (depositor defined):AID2013, AID2026]; format: functional
[8] = target: T3, Cannabinoid receptor 2; assay: SAR analysis of antagonists of the Cannabinoid Receptor 2 using an Image-Based Assay - Set 3. [Related pubchem assays (depositor defined):AID2013, AID2026]; format: functional
[9] = cells; format: functional, cell-based
[10] = cells; format: functional, cell-based; remark: listed apart in the source
[11] = target: T5, Short transient receptor potential channel 4 (Mus musculus, UniProt Q9QUQ5); assay: block of DAMGO-driven TRPC4 calcium entry – cell-based, HEK293 TRPC4/mu-opioid, Fluo-4 calcium, dose response (AID 434942); format: functional;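 further: potency of inhibitors blocking the TRPC4 calcium response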
T5 sequence (Q9QUQ5 whole entry): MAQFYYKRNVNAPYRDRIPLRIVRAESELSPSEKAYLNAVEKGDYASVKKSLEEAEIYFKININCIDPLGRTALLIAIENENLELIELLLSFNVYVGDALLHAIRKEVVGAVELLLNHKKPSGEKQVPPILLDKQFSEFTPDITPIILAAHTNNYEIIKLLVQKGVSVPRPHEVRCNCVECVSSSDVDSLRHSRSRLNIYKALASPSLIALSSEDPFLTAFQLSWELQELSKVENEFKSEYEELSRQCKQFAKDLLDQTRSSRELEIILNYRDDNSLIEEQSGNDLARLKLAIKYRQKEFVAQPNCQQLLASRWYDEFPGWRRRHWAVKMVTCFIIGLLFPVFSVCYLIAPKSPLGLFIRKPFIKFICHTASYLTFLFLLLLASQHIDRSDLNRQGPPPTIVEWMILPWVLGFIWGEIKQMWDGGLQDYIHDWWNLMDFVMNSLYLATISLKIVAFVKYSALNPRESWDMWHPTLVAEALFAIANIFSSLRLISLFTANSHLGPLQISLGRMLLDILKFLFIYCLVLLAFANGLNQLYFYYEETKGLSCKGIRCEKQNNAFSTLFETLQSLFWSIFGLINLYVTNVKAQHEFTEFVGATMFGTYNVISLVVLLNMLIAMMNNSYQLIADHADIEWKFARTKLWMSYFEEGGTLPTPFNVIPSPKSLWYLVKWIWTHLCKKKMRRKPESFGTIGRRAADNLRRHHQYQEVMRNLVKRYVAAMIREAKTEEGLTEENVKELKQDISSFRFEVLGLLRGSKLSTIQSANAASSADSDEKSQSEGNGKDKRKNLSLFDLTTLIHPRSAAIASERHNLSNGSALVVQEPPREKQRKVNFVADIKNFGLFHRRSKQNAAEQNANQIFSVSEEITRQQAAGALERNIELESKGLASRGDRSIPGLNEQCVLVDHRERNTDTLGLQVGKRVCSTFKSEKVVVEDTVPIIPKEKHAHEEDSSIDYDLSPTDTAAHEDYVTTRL

[12] = target: T6, Probable nicotinate-nucleotide adenylyltransferase (Staphylococcus aureus (strain N315), UniProt P65502); format: functional, Staphylococcus aureus subsp. aureus N315;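 on IC50 Mean: confirmatory dose-response retesting of NadD inhibitor hits first found in an ultra-high-throughput screen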
T6 sequence (P65502 whole entry): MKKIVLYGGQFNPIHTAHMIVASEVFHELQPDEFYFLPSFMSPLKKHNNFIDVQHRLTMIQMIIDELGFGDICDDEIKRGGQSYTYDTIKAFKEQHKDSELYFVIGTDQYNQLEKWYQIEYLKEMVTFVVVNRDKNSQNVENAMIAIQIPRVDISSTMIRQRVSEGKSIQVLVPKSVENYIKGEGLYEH

[13] = target: T6, Probable nicotinate-nucleotide adenylyltransferase; format: functional, Staphylococcus aureus subsp. aureus N315; settings: read-out: IC50_Mean
[14] = target: T7, Streptokinase A (Streptococcus pyogenes serotype M1, UniProt P10520); assay: viability-normalized secreted streptokinase activity reduction – plasminogen activation absorbance, OD405, dose response (AID 1914); format: functional, Streptococcus pyogenes M1 GAS;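 further: secreted streptokinase activity via plasminogen activation per viability signal from cell pellet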
T7 sequence (P10520 whole entry): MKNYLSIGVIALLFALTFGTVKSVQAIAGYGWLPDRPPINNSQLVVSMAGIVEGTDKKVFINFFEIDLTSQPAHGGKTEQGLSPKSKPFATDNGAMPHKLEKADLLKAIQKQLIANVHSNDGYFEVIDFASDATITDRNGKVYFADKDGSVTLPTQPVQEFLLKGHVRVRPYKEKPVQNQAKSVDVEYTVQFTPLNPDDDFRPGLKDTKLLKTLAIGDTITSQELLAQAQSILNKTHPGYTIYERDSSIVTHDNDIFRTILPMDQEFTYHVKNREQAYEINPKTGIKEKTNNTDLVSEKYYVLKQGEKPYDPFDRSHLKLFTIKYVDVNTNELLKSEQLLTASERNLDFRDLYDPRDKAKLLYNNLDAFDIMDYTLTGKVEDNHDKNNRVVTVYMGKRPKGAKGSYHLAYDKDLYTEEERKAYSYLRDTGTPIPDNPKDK

[15] = system: Streptococcus; assay: GAS UMAA2166 growth inhibition – luminescence, BacTiterGlo, counter-screen for streptokinase expression inhibitor project, dose response (AID 1915); format: functional, organism-based;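 further: potency for reduction of bacterial viability or growth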
[16] = target: T8, Coagulation factor XII (Homo sapiens, UniProt P00748); format: functional;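 further: activated factor XIIa alpha cleaving a fluorogenic AMC peptide substrate; inhibitor potency from loss of enzyme activity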
T8 sequence (P00748 whole entry): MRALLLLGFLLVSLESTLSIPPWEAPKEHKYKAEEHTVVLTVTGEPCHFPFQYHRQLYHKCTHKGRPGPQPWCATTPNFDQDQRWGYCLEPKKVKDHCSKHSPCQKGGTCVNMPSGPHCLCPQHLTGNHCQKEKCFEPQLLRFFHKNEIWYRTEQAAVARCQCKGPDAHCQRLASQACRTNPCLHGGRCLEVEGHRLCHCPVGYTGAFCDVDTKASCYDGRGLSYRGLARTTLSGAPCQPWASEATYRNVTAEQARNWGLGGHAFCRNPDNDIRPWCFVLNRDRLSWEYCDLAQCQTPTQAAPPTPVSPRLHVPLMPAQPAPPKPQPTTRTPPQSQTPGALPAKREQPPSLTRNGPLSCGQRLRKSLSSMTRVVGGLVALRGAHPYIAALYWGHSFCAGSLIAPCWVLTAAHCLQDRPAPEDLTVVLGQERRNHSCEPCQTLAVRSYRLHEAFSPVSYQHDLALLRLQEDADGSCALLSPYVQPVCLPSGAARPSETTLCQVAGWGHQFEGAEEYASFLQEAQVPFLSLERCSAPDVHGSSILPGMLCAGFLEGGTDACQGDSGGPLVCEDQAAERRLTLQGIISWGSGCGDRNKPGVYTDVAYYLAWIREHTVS

[17] = system: Streptococcus sp. 'group A'; assay: Streptococcus pyogenes SK(-)GAS viability under kanamycin – luminescence, BacTiterGlo, confirmation, counter-screen for streptokinase expression inhibitor project, dose response (AID 1900); format: functional, organism-based
[18] = target: T9, Lytic switch protein BZLF1 (Epstein-Barr virus (strain B95-8) (HHV-4) (Human herpesvirus 4), UniProt P03206); assay: inhibition of BZLF1 ZTA DNA binding – biochemical, fluorescence polarization, Epstein-Barr virus, 1536-well, counter-screen for EBNA-1 inhibitor project, dose response (AID 2377); parameters: species or system human gammaherpesvirus 4;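 further: fluorescence polarization of Cy5-labelled ZRE DNA probe bound by purified Zta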
T9 sequence (P03206 whole entry): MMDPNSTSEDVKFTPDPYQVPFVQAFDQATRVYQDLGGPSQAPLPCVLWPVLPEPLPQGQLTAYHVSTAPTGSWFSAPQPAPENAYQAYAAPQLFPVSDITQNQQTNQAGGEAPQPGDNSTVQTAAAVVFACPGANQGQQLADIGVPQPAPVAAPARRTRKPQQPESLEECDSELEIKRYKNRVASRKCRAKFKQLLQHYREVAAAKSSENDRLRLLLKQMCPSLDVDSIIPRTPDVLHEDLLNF

[19] = target: T10, Epstein-Barr nuclear antigen 1 (Epstein-Barr virus (strain B95-8) (HHV-4) (Human herpesvirus 4), UniProt P03211); assay: inhibition of EBV nuclear antigen 1 DNA binding – biochemical, fluorescence polarization, 1536-well, dose response (AID 2381); parameters: species or system human gammaherpesvirus 4;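 further: fluorescence polarization of a Cy5 DNA probe bound by EBNA-1 protein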
T10 sequence (P03211 whole entry): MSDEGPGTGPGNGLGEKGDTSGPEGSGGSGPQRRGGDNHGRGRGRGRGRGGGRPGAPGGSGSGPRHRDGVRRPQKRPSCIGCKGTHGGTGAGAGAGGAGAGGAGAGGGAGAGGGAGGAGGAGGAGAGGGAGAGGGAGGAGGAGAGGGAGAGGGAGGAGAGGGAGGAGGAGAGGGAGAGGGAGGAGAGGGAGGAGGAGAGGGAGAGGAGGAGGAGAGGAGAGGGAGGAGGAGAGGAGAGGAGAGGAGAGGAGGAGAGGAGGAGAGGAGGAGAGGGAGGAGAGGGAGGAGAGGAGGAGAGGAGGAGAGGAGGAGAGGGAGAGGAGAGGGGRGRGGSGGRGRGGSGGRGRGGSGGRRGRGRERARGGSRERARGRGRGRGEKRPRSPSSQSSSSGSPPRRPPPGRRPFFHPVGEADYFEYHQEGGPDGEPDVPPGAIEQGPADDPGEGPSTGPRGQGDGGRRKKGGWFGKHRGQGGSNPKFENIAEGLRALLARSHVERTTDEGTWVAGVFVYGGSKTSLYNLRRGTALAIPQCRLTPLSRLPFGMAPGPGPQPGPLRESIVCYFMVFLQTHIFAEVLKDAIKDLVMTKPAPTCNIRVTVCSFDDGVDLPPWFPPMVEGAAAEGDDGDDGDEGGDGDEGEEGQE

## COc1ccc(CC(C)Nc2cccc(F)c2)cc1 (centres undefined)
[1]
  AC50: 14.5 µM (active)

## CCN(CC)S(=O)(=O)c1ccc(NC(=O)c2cc(-c3ccccc3)nc3ccccc23)cc1
[2]
  EC50: > 32 µM (inactive)
[3]
  EC50: > 32 µM (inactive)
[4]
  EC50: > 32 µM (inactive)
[5]
  IC50: 0.352 µM (active)
[6]
  IC50: > 32 µM (inactive)
[7]
  IC50: > 32 µM (inactive)
[8]
  IC50: > 10.8 µM (inactive)

## O=C(NC1CCCCCCC1)c1cc(F)c(F)cc1Cl
[1]
  AC50: 52.8 µM (active)

## Cc1nn(C(=O)c2cccnc2)c(C)c1Sc1ccccc1
[9]
  EC50: > 350 µM (not active)
[10]
  EC50: > 350 µM (not active)
[11]
  EC50: 3.35 µM (active)

## Cc1ccc(-c2cc(C(=O)Nc3ccc(S(=O)(=O)Nc4cc(C)on4)cc3)c3ccccc3n2)c(C)c1
[12]
  IC50: 4.38 µM (active)
[13]
  IC50: 15.4 µM (active)
[14]
  EC50: 9.4 µM (active)
[2]
  EC50: > 32 µM (inactive)
[3]
  EC50: > 32 µM (inactive)
[4]
  EC50: > 32 µM (inactive)
[5]
  IC50: 9.14 µM (active)
[15]
  EC50: 25.2 µM (active)
[16]
  IC50: > 50 µM (inactive)
[6]
  IC50: > 32 µM (inactive)
[7]
  IC50: > 32 µM (inactive)
[8]
  IC50: > 32 µM (inactive)
[17]
  EC50: 12.1 µM (active)

## Cc1nc(N2CCN(C(=O)c3ccc4c(c3)OCCO4)CC2)c2c3c(sc2n1)CCCC3
[2]
  EC50: > 32 µM (inactive)
[3]
  EC50: > 32 µM (inactive)
[4]
  EC50: > 32 µM (inactive)
[5]
  IC50: 3.36 µM (active)
[6]
  IC50: 21.4 µM (inactive)
[7]
  IC50: > 32 µM (inactive)
[8]
  IC50: 24.2 µM (inactive)

## CN1C(=O)N(C)C2(c3ccccc3)Nn3c(s/c(=C/c4ccco4)c3=O)=NC12c1ccccc1 (centres undefined)
[18]
  IC50: > 111 µM (not active)
[19]
  IC50: > 5.47 µM (active)

Reference: ChEMBL document CHEMBL1201862, “PubChem BioAssay data set” (2004)
